Reference: patent US10238624B2, “Composition for activating longevity genes, containing kojic acid derivative as active ingredient” (AMOREPACIFIC CORPORATION, priority 2015, dated 2019)

Tests used:
Format in all cases: cell-based
Klotho mRNA [1] = assay: Relative expression of Klotho mRNA in keratinocytes (TaqMan RT-PCR); details: normal human keratinocytes, 10 ppm, 37° C., 24 hours; control = 1.0
Description: (§1) In order to investigate the effect of the kojic acid derivative according to the present disclosure on the activation of longevity genes, the effect of kojyl methylenedioxycinnamate on the activation of Sirt-1, Klotho, XPD and ERCC8 was compared with that of retinol using normal human keratinocytes (NHKs) and normal human fibroblasts (NHFs).
(§2) Specifically, after treating the keratinocytes (NHKs) and fibroblasts (NHFs) with kojyl methylenedioxycinnamate or retinol at 10 ppm and incubating them at 37° C. for 24 hours, the relative expression of Sirt-1, Klotho, XPD and ERCC8 mRNAs was compared by isolating the total RNAs from the cells. The NHFs were purchased from Lonza (Allendale, N.J., USA) and incubated at 37° C. for 24 hours using DMEM after transferring 2×10^5 cells onto a 60-mm dish. After discarding the medium, the cells were transferred to a fresh tissue culture flask. […]
(§3) The total RNAs were isolated using TRIzol™ (Invitrogen, Carlsbad, Calif., USA) according to the manufacturer's instructions. RNA concentration was measured spectrophotometrically and RNA integrity was measured using BioAnalyzer 2100 (Agilent Technologies, Santa Clara, Calif., USA). […] Target gene expression level was measured by quantitative real-time TaqMan RT-PCR (7500Fast, Applied Biosystems, Foster City, Calif., USA). […]

Klotho mRNA [2] = assay: Relative expression of Klotho mRNA in fibroblasts (TaqMan RT-PCR); details: normal human fibroblasts, 10 ppm, 37° C., 24 hours; control = 1.0
Description: as §1, §2, §3

ERCC8 mRNA [3] = assay: Relative expression of ERCC8 mRNA in keratinocytes (TaqMan RT-PCR); details: normal human keratinocytes, 10 ppm, 37° C., 24 hours; control = 1.0
Description: as §1, §2, §3

ERCC8 mRNA [4] = assay: Relative expression of ERCC8 mRNA in fibroblasts (TaqMan RT-PCR); details: normal human fibroblasts, 10 ppm, 37° C., 24 hours; control = 1.0
Description: as §1, §2, §3

XPD mRNA [5] = assay: Relative expression of XPD mRNA in fibroblasts (TaqMan RT-PCR); details: normal human fibroblasts, 10 ppm, 37° C., 24 hours; control = 1.0
Description: as §1, §2, §3

Sirt-1 mRNA [6] = assay: Relative expression of Sirt-1 mRNA in keratinocytes (TaqMan RT-PCR); details: normal human keratinocytes, 10 ppm, 37° C., 24 hours; control = 1.0
Description: as §1, §2, §3

XPD mRNA [7] = assay: Relative expression of XPD mRNA in keratinocytes (TaqMan RT-PCR); details: normal human keratinocytes, 10 ppm, 37° C., 24 hours; control = 1.0
Description: as §1, §2, §3

Sirt-1 mRNA [8] = assay: Relative expression of Sirt-1 mRNA in fibroblasts (TaqMan RT-PCR); details: normal human fibroblasts, 10 ppm, 37° C., 24 hours; control = 1.0
Description: as §1, §2, §3

FoxO3a = FoxO3a activation by nuclear translocation rate in human MNT1 melanoma cells (DAPI/anti-FoxO3a confocal microscopy); details: 48 hours; for nuclear translocation rate: control 13.2%
Description: In order to investigate the effect of the kojic acid derivative according to the present disclosure on the activation of longevity genes, the effect of the kojyl methylenedioxycinnamate seletinoid G on the activation of the FoxO3a gene was investigated by measuring nuclear translocation rate using human MNT1 melanoma cells purchased from Lonza.
The degree of FoxO3a activation was evaluated based on violet fluorescence resulting from the overlapping of red and blue fluorescence. • Primary antibody: anti-FoxO3a (1:200), 4° C., overnight. • Secondary antibody: Alexa Fluor 555-conjugated goat (1:5000), room temperature, 1 hour.

Row | SMILES | relative expression of Klotho mRNA (Klotho mRNA [1]) | relative expression of Klotho mRNA (Klotho mRNA [2]) | relative expression of ERCC8 mRNA (ERCC8 mRNA [3]) | relative expression of ERCC8 mRNA (ERCC8 mRNA [4]) | relative expression of XPD mRNA (XPD mRNA [5]) | relative expression of Sirt-1 mRNA (Sirt-1 mRNA [6]) | relative expression of XPD mRNA (XPD mRNA [7]) | relative expression of Sirt-1 mRNA (Sirt-1 mRNA [8]) | activation of the longevity gene FoxO3a (in words) (FoxO3a; 15-450 ppm) | nuclear translocation rate (FoxO3a; 15 ppm) | nuclear translocation rate (FoxO3a; 150 ppm) | nuclear translocation rate (FoxO3a; 450 ppm)
1 | CC1=C(/C=C/C(C)=C/C=C/C(C)=C/CO)C(C)(C)CCC1 [Retinol, retinol, reference compound] | 8.9 | 2.2 | 1.5 | 1.3 | 2.5 | 4.6 | 8.2 | 2.5 |  |  |  | 
2 | O=C(/C=C/c1ccc2c(c1)OCO2)OCc1cc(=O)c(O)co1 [Kojyl methylenedioxycinnamate, kojyl methylenedioxycinnamate] | 9.1 | 2.5 | 1.9 | 1.4 | 3.5 | 5.2 | 8.5 | 2.4 | remarkably activates | 35.7% | 86.3% | 66.9%
